Data: US9440957B2, “Compounds and compositions for modulating EGFR Activity” (Novartis AG, priority 2012, dated 2016)
Read-outs that look alike come from different tables or passages of the source.

Key:
H1975 (EGFR L858/T790M) = H1975 (EGFR L858/T790M) (Homo sapiens, UniProt P00533, L858R/T790M); experiment: EGFR target modulation in H1975 cell line (phospho-EGFR Y1173 ELISA); type: cell-based
Outline: (§1)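 Phospho-EGFR Y1173 levels were measured by chemiluminescent capture ELISA in lysates of cells exposed to compound for 3 hours at 37 °C. Inhibition was normalised to EGF-stimulated control cells taken as maximal response, and IC50 values were obtained by non-linear curve fitting.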

[1] = target: human EGFR WT (NIH/3T3 cells, EGF-induced) (Homo sapiens, UniProt P00533); experiment: EGFR target modulation in engineered NIH/3T3 cell lines (phospho-EGFR Y1068 AlphaLISA), EGFR WT; type: cell-based; conditions: engineered NIH/3T3 cells, read-out: NIH3T3 IC50 (μM) EGFR (WT)
Outline: (§2)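 Engineered NIH/3T3 cells were plated overnight, then exposed to a 12-point 1:3 compound series (from a 10 μM stock) for 3 hours at 37 °C. WT-expressing cells alone were stimulated with 50 ng/ml EGF for 5 minutes before lysis. IC50s came from non-linear fits of AlphaLISA signal.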

H3255 (EGFR L858R) = H3255 (EGFR L858R) (Homo sapiens, UniProt P00533, L858R); experiment: EGFR target modulation in H3255 cell line (phospho-EGFR Y1173 ELISA); type: cell-based
H3255 (EGFR L858R), sequence (P00533 25-1210 L858R): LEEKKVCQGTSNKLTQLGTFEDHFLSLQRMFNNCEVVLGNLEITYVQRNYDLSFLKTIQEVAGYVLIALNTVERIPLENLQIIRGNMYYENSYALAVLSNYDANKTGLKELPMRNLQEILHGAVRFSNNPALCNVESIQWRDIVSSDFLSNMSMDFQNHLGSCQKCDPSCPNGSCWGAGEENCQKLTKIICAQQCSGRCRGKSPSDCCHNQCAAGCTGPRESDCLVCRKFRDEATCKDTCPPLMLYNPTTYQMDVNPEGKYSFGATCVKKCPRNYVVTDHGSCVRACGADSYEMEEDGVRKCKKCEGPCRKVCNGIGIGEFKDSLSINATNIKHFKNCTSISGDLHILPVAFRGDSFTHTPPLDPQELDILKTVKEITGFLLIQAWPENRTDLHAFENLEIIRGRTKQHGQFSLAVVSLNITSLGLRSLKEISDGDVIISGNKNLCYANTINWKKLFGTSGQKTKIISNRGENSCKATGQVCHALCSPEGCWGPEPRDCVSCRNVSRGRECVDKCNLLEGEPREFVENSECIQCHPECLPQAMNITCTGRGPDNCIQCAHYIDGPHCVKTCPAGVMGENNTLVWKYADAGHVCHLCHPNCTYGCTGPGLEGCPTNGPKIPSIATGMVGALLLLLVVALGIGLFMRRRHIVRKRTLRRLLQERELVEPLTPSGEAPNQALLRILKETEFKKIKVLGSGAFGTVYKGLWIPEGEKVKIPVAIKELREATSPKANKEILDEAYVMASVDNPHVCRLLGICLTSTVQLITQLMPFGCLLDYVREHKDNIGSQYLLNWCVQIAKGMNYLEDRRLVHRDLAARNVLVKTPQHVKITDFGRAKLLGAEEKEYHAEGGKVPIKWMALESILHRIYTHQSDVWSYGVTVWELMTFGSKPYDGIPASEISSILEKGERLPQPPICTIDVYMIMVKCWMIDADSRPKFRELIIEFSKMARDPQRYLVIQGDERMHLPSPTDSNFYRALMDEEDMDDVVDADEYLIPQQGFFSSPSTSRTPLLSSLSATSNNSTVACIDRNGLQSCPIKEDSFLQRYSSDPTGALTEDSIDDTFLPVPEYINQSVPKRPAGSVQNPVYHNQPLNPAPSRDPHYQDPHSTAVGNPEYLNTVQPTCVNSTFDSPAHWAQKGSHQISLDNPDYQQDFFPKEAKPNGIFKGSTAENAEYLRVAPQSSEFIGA
Outline: as §1

EGFR(L858R/T790M) = target: T1, EGFR(L858R/T790M) (Homo sapiens, UniProt P00533, L858R/T790M); experiment: EGFR biochemical assay (HTRF), IC50 determinations
T1 construct: purchased from Carna (GST-a.a. 669-1210)
T1 sequence (P00533 669-1210 T790M/L858R): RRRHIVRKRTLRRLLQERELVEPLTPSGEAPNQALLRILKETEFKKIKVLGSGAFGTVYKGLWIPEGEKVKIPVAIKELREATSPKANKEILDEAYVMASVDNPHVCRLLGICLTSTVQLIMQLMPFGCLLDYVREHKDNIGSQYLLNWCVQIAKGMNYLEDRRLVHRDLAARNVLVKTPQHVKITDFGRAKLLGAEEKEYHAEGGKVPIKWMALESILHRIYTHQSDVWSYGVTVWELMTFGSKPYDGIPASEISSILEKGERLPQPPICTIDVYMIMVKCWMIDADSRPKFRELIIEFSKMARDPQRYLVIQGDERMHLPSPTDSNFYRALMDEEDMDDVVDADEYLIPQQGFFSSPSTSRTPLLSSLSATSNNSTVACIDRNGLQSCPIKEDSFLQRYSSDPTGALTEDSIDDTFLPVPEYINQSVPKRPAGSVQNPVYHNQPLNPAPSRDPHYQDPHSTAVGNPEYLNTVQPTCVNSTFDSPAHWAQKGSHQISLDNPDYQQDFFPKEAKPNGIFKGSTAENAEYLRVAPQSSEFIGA
Outline: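 Two formats were run: compound preincubated at room temperature with enzyme and biotin-TK peptide before ATP starts the reaction, or no preincubation with enzyme added last. Reactions ran 60 min at room temperature and were stopped with EDTA. Phosphopeptide was read by HTRF (PT66K/SAXL, 1 h).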

[2] = target: human EGFR L858R/T790M (NIH/3T3 cells) (Homo sapiens, UniProt P00533, L858R/T790M); experiment: EGFR target modulation in engineered NIH/3T3 cell lines (phospho-EGFR Y1068 AlphaLISA), EGFR L858R/T790M; type: cell-based; conditions: engineered NIH/3T3 cells, read-out: NIH3T3 IC50 (μM) EGFR (L858R/T790M)
Outline: as §2

[3] = target: human EGFR L858R (NIH/3T3 cells) (Homo sapiens, UniProt P00533, L858R); experiment: EGFR target modulation in engineered NIH/3T3 cell lines (phospho-EGFR Y1068 AlphaLISA), EGFR L858R; type: cell-based; conditions: engineered NIH/3T3 cells, read-out: NIH3T3 IC50 (μM) EGFR (L858R)
human EGFR L858R (NIH/3T3 cells), sequence (P00533 25-1210 L858R): as the sequence (P00533 25-1210 L858R) above
Outline: as §2

HEKn (EGFR WT) = HEKn (EGFR WT) (Homo sapiens, UniProt P00533); experiment: EGFR target modulation in HEKn (EGFR-WT) cell line (phospho-EGFR Y1173 ELISA); type: cell-based; conditions: value outside parentheses
HEKn (EGFR WT), sequence (P00533 25-1210): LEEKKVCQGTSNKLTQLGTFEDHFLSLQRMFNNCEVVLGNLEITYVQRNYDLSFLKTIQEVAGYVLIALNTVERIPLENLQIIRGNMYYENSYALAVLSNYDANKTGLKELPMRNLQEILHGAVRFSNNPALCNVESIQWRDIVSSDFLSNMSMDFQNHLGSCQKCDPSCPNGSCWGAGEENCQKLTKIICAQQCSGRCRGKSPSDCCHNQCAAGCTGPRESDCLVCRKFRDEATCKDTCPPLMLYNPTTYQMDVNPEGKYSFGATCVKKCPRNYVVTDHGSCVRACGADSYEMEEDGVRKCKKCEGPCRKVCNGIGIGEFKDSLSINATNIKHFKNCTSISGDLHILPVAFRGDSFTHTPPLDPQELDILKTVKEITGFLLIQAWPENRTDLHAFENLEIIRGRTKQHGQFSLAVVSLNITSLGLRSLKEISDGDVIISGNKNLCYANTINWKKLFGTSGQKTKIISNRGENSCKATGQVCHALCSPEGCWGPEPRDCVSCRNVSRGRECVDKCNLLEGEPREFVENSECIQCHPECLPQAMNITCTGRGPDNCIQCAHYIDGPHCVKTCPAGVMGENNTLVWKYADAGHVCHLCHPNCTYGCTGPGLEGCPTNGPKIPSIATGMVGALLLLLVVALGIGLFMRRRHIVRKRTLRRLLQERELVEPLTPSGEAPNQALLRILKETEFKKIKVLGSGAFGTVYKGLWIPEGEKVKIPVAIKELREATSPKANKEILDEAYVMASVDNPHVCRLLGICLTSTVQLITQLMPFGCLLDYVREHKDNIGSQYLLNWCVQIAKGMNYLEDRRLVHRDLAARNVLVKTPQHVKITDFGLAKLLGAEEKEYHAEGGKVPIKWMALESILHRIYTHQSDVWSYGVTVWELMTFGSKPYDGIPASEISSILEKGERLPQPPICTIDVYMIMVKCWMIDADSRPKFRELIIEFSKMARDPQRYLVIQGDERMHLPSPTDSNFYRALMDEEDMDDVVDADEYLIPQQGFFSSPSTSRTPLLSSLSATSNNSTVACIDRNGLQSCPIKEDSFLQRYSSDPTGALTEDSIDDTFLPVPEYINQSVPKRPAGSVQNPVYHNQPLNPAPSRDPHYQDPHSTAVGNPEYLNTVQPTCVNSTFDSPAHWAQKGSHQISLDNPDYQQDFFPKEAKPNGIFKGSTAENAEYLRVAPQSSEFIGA
Outline: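 Read-out was Y1173 phosphorylation, measured by chemiluminescent ELISA with anti-EGFR capture of lysates. HEKn keratinocytes (wild-type EGFR) were treated with compound for 3 h.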

[4] = EGFR (L858R/T790M) with 90 min pre-incubation, read-out: IC50 (μM) Column B
[5] = EGFR (L858R/T790M) with no pre-incubation, read-out: IC50 (μM) Column A

| IC50 (H1975 (EGFR L858/T790M)) [µM] | IC50 [1] [µM] | IC50 (H3255 (EGFR L858R)) [µM] | IC50 (EGFR(L858R/T790M); [4]) [µM] | IC50 (EGFR(L858R/T790M); [5]) [µM] | IC50 [2] [µM] | IC50 [3] [µM] | IC50 (HEKn (EGFR WT)) [µM] | Compound |
| --- | --- | --- | --- | --- | --- | --- | --- | --- |
| 0.026 | 0.218 | 0.085 | < 0.001 | 0.017 | 0.007 | 0.025 | 3.14 | COc1cc(C(=O)Nc2nc3cccc(C)c3n2[C@@H]2CCCCN(C(=O)/C=C/CN(C)C)C2)cc(Cl)n1 [Example 17-75] |
| < 0.001 | 0.004 | 0.001 | < 0.001 | < 0.001 | < 0.001 | < 0.001 | 0.014 | Cc1cccc2nc(NC(=O)c3ccnc(-c4ccccc4)c3)n([C@@H]3CCCCN(C(=O)/C=C/CN(C)C)C3)c12 [Example 17-76] |
| 0.002 | 0.008 | 0.001 | < 0.001 | 0.003 | 0.001 | 0.001 | 0.024 | Cc1cccc2nc(NC(=O)c3ccc(Cl)nc3)n([C@@H]3CCCCN(C(=O)/C=C/CN(C)C)C3)c12 [Example 17-77] |
| 0.134 | 0.152 | 0.037 | < 0.001 | 0.006 | 0.006 | 0.005 | 1.68 | Cc1cccc2nc(NC(=O)c3cnc(Cl)c(Cl)c3)n([C@@H]3CCCCN(C(=O)/C=C/CN(C)C)C3)c12 [Example 17-78] |
| 0.002 | 0.062 | 0.007 | < 0.001 | 0.005 | 0.002 | 0.005 | 0.176 | COc1cncc(C(=O)Nc2nc3cccc(C)c3n2[C@@H]2CCCCN(C(=O)/C=C/CN(C)C)C2)c1 [Example 17-79] |
| < 0.001 | 0.002 | < 0.001 | < 0.001 | < 0.001 | < 0.001 | < 0.001 | 0.004 | Cc1ccccc1-c1cc(C(=O)Nc2nc3cccc(C)c3n2[C@@H]2CCCCN(C(=O)/C=C/CN(C)C)C2)ccn1 [Example 17-80] |
| 0.002 | 0.067 | 0.004 | < 0.001 | 0.002 | 0.002 | 0.003 | 0.162 | C=CC(=O)N1CCCC[C@@H](n2c(NC(=O)c3cnnc(C)c3)nc3cccc(C)c32)C1 [Example 17-81] |
| 0.01 | 0.187 | 0.029 | < 0.001 | 0.007 | 0.007 | 0.007 | 0.37 | Cc1cc(C(=O)Nc2nc3cccc(C)c3n2[C@@H]2CCCCN(C(=O)/C=C/CN(C)C)C2)cnn1 [Example 17-82] |
| 0.029 | 0.6 | 0.072 | 0.001 | 0.02 | 0.027 | 0.022 | 2.33 | COc1cccc2nc(NC(=O)c3ccnnc3)n([C@@H]3CCCCN(C(=O)/C=C/CN(C)C)C3)c12 [Example 17-83] |
| 0.037 | 1.94 | 0.137 | 0.003 | 0.049 | 0.028 | 0.04 | 1.66 | C=CC(=O)N1CCCC[C@@H](n2c(NC(=O)c3ccnnc3)nc3cccc(OC)c32)C1 [Example 17-84] |
| 0.038 | 0.6 | 0.111 | 0.003 | 0.038 | 0.02 | 0.043 | 2.08 | CC(C)Oc1cccc2nc(NC(=O)c3ccnnc3)n([C@@H]3CCCCN(C(=O)/C=C/CN(C)C)C3)c12 [Example 17-85] |
| 0.012 | 0.45 | 0.057 | 0.004 | 0.04 | 0.008 | 0.03 | 0.71 | C=CC(=O)N1CCCC[C@@H](n2c(NC(=O)c3ccnnc3)nc3cccc(OC(C)C)c32)C1 [Example 17-86] |
| 0.002 | 0.013 | < 0.001 | < 0.001 | < 0.001 | < 0.001 | < 0.001 | 0.037 | Cc1cccc2nc(NC(=O)c3ccnnc3)n([C@@H]3CCCCN(C(=O)C#CCN(C)C)C3)c12 [Example 17-87] |
| 0.001 | 0.031 | 0.002 | < 0.001 | 0.002 | < 0.001 | 0.001 | 0.045 | C=CC(=O)N1CCCC[C@@H](n2c(NC(=O)c3ccnnc3)nc3cccc(C)c32)C1 [Example 17-94] |
| 0.003 | 0.026 | 0.003 | < 0.001 | 0.002 | 0.002 | 0.002 | 0.127 | Cc1cccc2nc(NC(=O)c3ccnnc3)n([C@@H]3CCCCN(C(=O)/C=C/CN(C)C)C3)c12 [Example 17-95] |
| 0.014 | > 10 | 0.044 | 0.005 | 0.048 | 0.021 | 0.306 | > 10 | C=CC(=O)N1CCC[C@@H](n2c(NC(=O)c3ccccc3)nc3cccc(C)c32)C1 [Example 17-108] |
| 0.014 | 0.88 | 0.043 | < 0.001 | 0.025 | 0.028 | 0.032 | 1.68 | C=CC(=O)N1CCC[C@@H](n2c(NC(=O)c3ccnc(C)c3)nc3cccc(C)c32)C1 [Example 17-109] |
| < 0.001 | 0.047 | 0.008 | < 0.001 | 0.004 | 0.001 | 0.003 | 0.203 | C=CC(=O)N1CCCC[C@@H](n2c(NC(=O)c3ccccc3)nc3cc(CN4CCCC4)cc(C)c32)C1 [Example 17-111] |
| < 0.001 | 0.143 | 0.004 | < 0.001 | 0.001 | < 0.001 | 0.002 | 0.1 | C=CC(=O)N1CCCC[C@@H](n2c(NC(=O)c3ccccc3)nc3cccc(CN4CCC(O)C4)c32)C1 (some centres unmarked) [Example 17-114] |
| 0.64 | > 10 | > 10 | 0.005 | 0.68 | 0.005 | 0.156 | > 10 | C=CC(=O)N1CCC[C@@H](n2c(NC(=O)c3cccc(C(F)(F)F)c3)nc3cc(CN4CCCCC4)ccc32)C1 [Example 17-118] |
| 0.022 | > 10 | 0.49 | 0.008 | 0.2 | 0.023 | 0.271 | > 10 | C=CC(=O)N1CCC[C@@H](n2c(NC(=O)c3cccc(C(F)(F)F)c3)nc3cc(COCCOC)ccc32)C1 [Example 17-124] |
| 0.001 | 0.045 | 0.004 | < 0.001 | 0.002 | 0.002 | 0.002 | 0.028 | C=CC(=O)N1CCCC[C@@H](n2c(NC(=O)c3ccccc3)nc3cccc(CN(C)C)c32)C1 [Example 17-129] |
| 0.009 | 2.87 | 0.108 | 0.001 | 0.041 | 0.012 | 0.047 | 2.85 | C=CC(=O)N1CCCC[C@@H](n2c(NC(=O)c3ccccc3)nc3cccc(CN4CCS(=O)(=O)CC4)c32)C1 [Example 17-132] |
| 0.105 | 5.2 | 0.64 | 0.01 | 0.32 | 0.09 | 0.34 | > 10 | Cc1noc(-c2cccc3nc(NC(=O)c4ccccc4)n(C4COCCN(C(=O)/C=C/CN(C)C)C4)c23)n1 (centres unmarked) [Example 17-142] |
| 0.008 | 0.281 | 0.009 | < 0.001 | 0.008 | 0.009 | 0.006 | 0.269 | C=CC(=O)N1CCCC[C@@H](n2c(NC(=O)c3cnnc(C)c3)nc3cc(CN4CCCC4)cc(C)c32)C1 [Example 17-161] |
